Measured values reported in patent US9790188B2, “Benzimidazole derivatives and uses thereof” (Whitehead Institute for Biomedical Research, priority 2013, dated 2017).

Key:
[1] = test system: WT yeast; experiment: Growth inhibition of wild-type yeast (dose-response); type: cell-based; details: relative to parent ABI1
Description: (§1) Source plates were assembled in 96 well plates using multichannel pipettes to dilute rows in 1.6-fold serial dilutions of CSMGal. […] For α-syn, the final starting OD600 was 0.02. Drug concentration ranges varied depending on efficacy, growth inhibition, and solubility in media. A Tecan EvoFreedom liquid handling robot was then used to transfer culture from 96 to 384 well format with each well being represented four times. Final well volume was 35 μL. Plates were then incubated in humidified containers at 30° C. for either 24 or 40 hours. Plates were then read with a Tecan Saphire plate reader at OD600.
(§2) Raw OD600 values were transformed to “Relative Growth” in WT cells or “% Maximum Rescue” in α-syn experiments. In WT cells, the well background was subtracted and all values were then normalized to 100% for the untreated condition. In α-syn rescue experiments, the well background was subtracted and the maximum rescue in the particular experiment was normalized to 100%.

[2] = test system: α-syn; experiment: Yeast growth rescue from α-syn toxicity (dose-response); type: cell-based; details: relative to parent ABI1
Description: For galactose-induction experiments, overnight cultures were grown in CSM/2% glucose to saturation and diluted 1:20 into CSM/2% raffinose for ˜2 generations. Cultures were then diluted into CSM/2% galactose at an optimum OD600 for the experiment (see ‘Growth assays’).
as §1, §2

Cc1cc(C)cc(-n2cnc3cc(C(=O)NCc4ccccc4Cl)ccc32)c1 [ABI3, N-(2-chlorobenzyl)-1-(3,5-dimethylphenyl)-1H-benzo[d]imidazole-5-carboxamide]
shift of concentrations for ability to inhibit growth [1]: higher
shift of concentrations for efficacy against α-syn [2]: higher
